In PubChem BioAssay (NCI):
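1) Cells in 96-well plates. 2) Compound, 48 h, 5 concentrations. 3) Linear interpolation between surrounding doses. 4) Unreached endpoint = highest concentration. The concentration for full growth arrest is given as TGI.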

Experiments:
Assay in all cases: DTP human tumour cell line panel, 48 h
BT-549 breast = test system: BT-549 breast
CAKI-1 renal = test system: CAKI-1 renal
CCRF-CEM leukemia = test system: CCRF-CEM leukemia
HCT-15 colon = test system: HCT-15 colon
IGROV1 ovarian = test system: IGROV1 ovarian

SMILES | TGI (BT-549 breast) [µM] | TGI (CAKI-1 renal) [µM] | TGI (CCRF-CEM leukemia) [µM] | TGI (HCT-15 colon) [µM] | TGI (IGROV1 ovarian) [µM]
COc1cc(/C=N\N(C)C)cc(/C=N/N(C)C)c1O | 61.9 | 52.1 | 72.4 | > 100 | 
COC(=O)c1cc(C)ccc1C1CN=NC12Cc1ccc(C)cc1C2=O (stereo unspecified) | > 100 | > 100 | > 100 | > 100 | > 100
Nc1cccnc1NCC1(CO)CCCC1 | > 100 | > 100 | > 100 | > 100 | > 100
CCOCc1c(C)cc(C)c(C2C(C(=O)c3ccccc3)N3c4ccccc4C=CC3C2(C#N)C(=O)OCC)c1C (stereo unspecified) | 75.8 | > 100 | > 100 | > 100 | 46.5
O=c1c2ccccc2[nH]c2c(Cl)cc(Cl)c(NC3CCCCC3)c12 | 67.3 | 83.2 |  | > 100 | 96.2
O=C(O)c1ccccc1/C=N/NC1=NCCN1 | > 100 |  | > 100 | > 100 | > 100
O=C1N[C@H]2c3c(Cl)sc(Cl)c3[C@@H](O)[C@H]2O1 | > 100 | > 100 | > 100 | > 100 | > 100
CC(=O)Oc1cc(Cl)c(C)c2c1[C@H]1CC[C@]3(C)[C@@H](OC(C)=O)CC[C@H]3[C@@H]1CC2 | > 100 |  | > 100 | > 100 | > 100
COC(=O)c1cc2c(cc1CC1Cc3cc4c(cc3C1=O)CCC4)CCC2 (stereo unspecified) | > 100 | > 100 | > 100 | > 100 | > 100
COc1ccccc1NC(=S)Nc1cc(C)cc(C)n1 | > 100 | > 100 | > 100 | > 100 | > 100
O=C1N=C(SC2OC(CO)C(O)C(O)C2O)S/C1=C\c1ccccc1 (stereo unspecified) | > 100 | > 100 | > 100 | > 100 | > 100
Oc1c2cc(Cl)cc1COCc1cc(Cl)cc(c1O)COCc1cc(Cl)cc(c1O)COC2 | > 100 |  | 59.5 | > 100 | > 100
Cc1ccc(S(=O)(=O)c2ccsc2NC(=O)C(F)(F)F)cc1 | > 100 | 82.6 |  | > 100 | > 100
Cc1c(C)c(C)n(C2OC(CO)C(O)C(O)C2O)c(=S)c1C#N (stereo unspecified) |  |  | > 100 | > 100 | > 100
O=c1[nH]nc(-c2ccccc2)n1/N=C/c1ccc([N+](=O)[O-])cc1 | > 100 | > 59.3 | > 100 | > 100 | > 100
NCCCCC(NC(=O)C(N)Cc1ccc(O)cn1)C(=O)O (stereo unspecified) | > 100 | > 100 | > 100 | > 100 | > 100
CCOC(=O)CCCNC(=O)CCCCC(=O)N(C)C | > 100 | > 100 | > 100 | > 100 | > 100
C=C1[C@H](OC(C)=O)[C@H]2[C@@H](OC(C)=O)[C@@H](C)C[C@]2(C)C(=O)[C@H](C)/C=C/C(C)(C)C(=O)[C@H](OCC(C)C)[C@H]1OC(C)=O | > 25 | > 25 | > 25 | > 25 | > 25
O=C(Cn1c2c(c3ccccc31)CCCC2)N1CCCC1 | > 100 | > 100 |  | > 100 | > 100
c1ccc(-c2nc3ccccc3n3c(CN4CCCCC4)nnc23)cc1 | > 100 | > 100 | > 100 | > 100 | > 100
O=c1[nH]c(=O)n(CCOc2ccccc2)cc1Nc1ccccc1 |  | > 100 | > 100 | > 100 | > 100
O=C1CN(C(=O)C2CCCN2C(=O)C2CCCN2)C(=O)CN1 (stereo unspecified) | > 100 | > 100 | > 100 | > 100 | > 100
CC(C)(C)OC(=O)CN1C(=O)CC1CC(=O)c1ccccc1 (stereo unspecified) | 35.5 | 49.4 |  | 37.5 | 32.2
COc1ccccc1N(CN1C(=O)CCC1C(=O)O)C(C)=O (stereo unspecified) |  | > 100 |  | > 100 | > 100
O=[N+]([O-])c1ccc2c(c1)S(=O)(=O)N1Cc3ccccc3CCN21 |  | > 100 | > 100 | > 100 | > 100
CCOC(=O)c1cc2c([nH]1)c(O)cc1c2ccn1Cc1ccccc1 | 32.2 | 36.8 | 39.9 | 30.5 | 54.3

SMILES | TGI (BT-549 breast) [µM] | TGI (CAKI-1 renal) [µM] | TGI (CCRF-CEM leukemia) [µM] | TGI (HCT-15 colon) [µM] | TGI (IGROV1 ovarian) [µM]
CC(=O)N(C(C)=O)n1c(Cc2ccc(Cl)cc2)n[nH]c1=O | > 100 | > 100 | > 100 | > 100 | > 100
CCCCCCCCCCCCN(CC(O)C(O)C(OC1OC(CO)C(O)C(O)C1O)C(O)CO)C(=O)CCCCCCCCCCC (stereo unspecified) | 40.4 | 33.3 | 65.1 | 35.4 | 35.8
N#Cc1c(=O)n(-c2ccccc2)c(O)c2c(N)n[nH]c12 | > 100 | > 100 |  | > 100 | > 100
CC1(C)C2CCC(CN)(C2)C1N (stereo unspecified) | > 100 | > 100 | > 100 | > 100 | > 100
CN(C)c1ccc(/C=C2/NC(=S)NC2=O)cc1 | > 100 | > 100 | 80.8 | > 100 | > 100
Cc1cc(S(=O)(=O)Nc2nc(N)n(-c3ccccn3)n2)c(S)cc1Cl | > 100 | > 100 | > 100 | > 100 | > 100
OC1(c2ccc(Cl)cc2)C(N2CCCC2)c2ccccc2C2=NCCN21 (stereo unspecified) | 65.2 | 94.6 | > 100 | > 100 | 52.7
c1ccc2c(c1)CC1=C(O2)c2ccccc2OC1 | 51.1 | 49.5 | > 100 | 72.6 | > 100
CCOC(=O)C1(Cc2ccccc2)C=CN(C(=O)c2ccccc2)C=C1 | > 100 | > 100 | 61.5 | > 100 | > 100
CCC(C)(C)C1CCC2c3c([nH]c4ccccc34)C3C(=O)N(c4ccc(OC)cc4)C(=O)C3C2C1 (stereo unspecified) | 42.6 | 22.7 |  | > 100 | 90.8
CC(C)NC(NC(C)C)=C(S(=O)(=O)C(F)(F)C(F)(F)C(F)(F)C(F)(F)F)S(=O)(=O)C(F)(F)C(F)(F)C(F)(F)C(F)(F)F | > 100 | > 100 | > 100 | > 100 | > 100
N#CC12CNCC1CN=N2 (stereo unspecified) | > 100 | > 100 | > 100 | > 100 | > 100
OC1(c2ccccc2)C2CCN(CC2)C1CN1CCOCC1 (stereo unspecified) |  | > 100 | > 100 | > 100 | > 100
COc1cc(/C=C2/SC(c3ccccc3)N(c3ccccc3Cl)C2=O)cc(OC)c1OC (stereo unspecified) | 85.1 | > 100 | 43.4 | > 100 | 
CCN(CC)CCn1nc(N)c2nc3ccccc3nc21 | > 100 | > 100 | > 100 | > 100 | > 100
CN(C)/N=C(/CC(O)(C(F)(F)F)C(F)(F)F)c1ccc([N+](=O)[O-])cc1 |  | > 100 | > 100 | > 100 | > 100
COc1nc(N=P(c2ccccc2)(c2ccccc2)c2ccccc2)cc(=O)[nH]1 | > 100 | > 100 | > 100 | > 100 | > 100
CN(CCC(=O)O)C1=Nc2ccc(Cl)cc2C(c2ccccc2)=[N+]([O-])C1 | > 100 | > 100 | > 100 | > 100 | > 100
COc1ccc(C(=O)c2sc(N(C)C)nc2-c2ccccc2)cc1 | 75.6 |  | 65.2 | > 100 | > 100
COc1ccc(/C=C2\CCC(C)C3C2=NN(c2ccccc2)C3c2ccc(OC)c(OC)c2)cc1OC (stereo unspecified) | 21.5 | 15.6 | 10.2 | 9.92 | 8.23
Cc1ccc(/C(Cl)=C/C=C(C#N)C#N)cc1 |  | 14.4 | > 100 | 4.79 | 16.2
CC(C)(C)C(=O)OCOP(=O)(OCOC(=O)C(C)(C)C)OCC1OC(n2ccc(=O)[nH]c2=O)C(N=[N+]=[N-])C1O (stereo unspecified) | 14.9 | 22.5 | 13.3 | 10.7 | 17.5
COc1ccc(C[C@@H](CO)NC2=C(C#N)CCC2)cc1 | > 100 | > 100 | > 100 | > 100 | 
O=C(O)CCCn1nnc2c(=O)[nH][nH]c(=O)c21 | > 100 | > 100 | > 100 | > 100 | 
COC(=O)/C=C(/C=C1/C(C#N)=C(N)N(c2ccc(Cl)cc2)C1(C)/C(=C/C(=O)OC)C(=O)OC)C(=O)OC (stereo unspecified) |  | > 100 | > 100 | > 100 | > 100
